Legend:
[1] = tested on: morningglory; test: Test A pre-/postemergence herbicide test; assay type: in vivo, Ipomoea spp.; conditions: for Plant response rating, Morningglory: Postemergence; for Morningglory plant response rating: Preemergence
Outline: (§1)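 Pre: seeded sandy loam, directed soil spray, compound in non-phytotoxic solvent + surfactant. Post: 1–2-leaf plants (2–10 cm), sprayed to runoff. Greenhouse ~10 d; visual injury vs untreated, 0–100 scale.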

[2] = tested on: ducksalad; test: Test B flooded paddy test; assay type: in vivo, Heteranthera limosa; conditions: 1000 g ai/ha, scale 0 to 100 (0 no effect, 100 complete control)
Outline: (§2)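 Read-out: visual comparison with controls, scored 0 to 100, where 100 means complete control and 0 no effect. Formulated chemicals were applied postemergence to plants 2–18 cm tall (1- to 4-leaf), or to flooded-paddy plants at the 2-leaf stage, then held 13 to 15 days under glass.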

[3] = tested on: Surinam grass; test: Test B pre-/postemergence herbicide test; assay type: in vivo, Urochloa decumbens
Outline: (§3)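 Test chemicals in a non-phytotoxic solvent mixture with surfactant were applied preemergence to seeded species and postemergence to plants 2-18 cm tall (1- to 4-leaf stage); rice and barnyardgrass were also tested in a flooded paddy at the 2-leaf stage. Visual rating versus controls after 13-15 days in greenhouse, scale 0 (no effect) to 100 (complete control).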

[4] = tested on: large crabgrass; test: Test A pre-/postemergence herbicide test; assay type: in vivo, Digitaria sanguinalis; conditions: for Plant response rating, Crabgrass, Large: Postemergence; for Crabgrass, Large plant response rating: Preemergence
Outline: as §1

[5] = tested on: lambsquarters; test: Test B pre-/postemergence herbicide test; assay type: in vivo, Chenopodium album
Outline: as §3

[6] = tested on: pigweed; test: Test B pre-/postemergence herbicide test; assay type: in vivo, Amaranthus retroflexus
Outline: as §3

[7] = tested on: cocklebur; test: Test B pre-/postemergence herbicide test; assay type: in vivo, Xanthium strumarium
Outline: (§4)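 Pre: seeds sown, then sprayed. Post: 1–4-leaf plants (2–18 cm) sprayed at the same time. Paddy: flooded, treated at 2-leaf stage. Formulation: non-phytotoxic solvent with surfactant. Greenhouse 13–15 days; visual 0–100 score relative to controls.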

[8] = tested on: barnyardgrass; test: Test B flooded paddy test; assay type: in vivo, Echinochloa crus-galli; conditions: 1000 g ai/ha, scale 0 to 100 (0 no effect, 100 complete control)
Outline: as §2

[9] = tested on: giant foxtail; test: Test A pre-/postemergence herbicide test; assay type: in vivo, Setaria faberi; conditions: for Plant response rating, Foxtail, Giant: Postemergence; for Foxtail, Giant plant response rating: Preemergence
Outline: as §1

[10] = tested on: large crabgrass; test: Test B pre-/postemergence herbicide test; assay type: in vivo, Digitaria sanguinalis
Outline: as §3

[11] = tested on: barnyardgrass; test: Test A pre-/postemergence herbicide test; assay type: in vivo, Echinochloa crus-galli; conditions: for Plant response rating, Barnyardgrass: Postemergence; for Barnyardgrass plant response rating: Preemergence
Outline: as §1

[12] = tested on: barnyardgrass; test: Test B pre-/postemergence herbicide test; assay type: in vivo, Echinochloa crus-galli
Outline: as §4

[13] = tested on: velvetleaf; test: Test B pre-/postemergence herbicide test; assay type: in vivo, Abutilon theophrasti
Outline: as §3

[14] = tested on: velvetleaf; test: Test A pre-/postemergence herbicide test; assay type: in vivo, Abutilon theophrasti; conditions: for Plant response rating, Velvetleaf: Postemergence; for Velvetleaf plant response rating: Preemergence
Outline: as §1

[15] = tested on: redroot pigweed; test: Test A pre-/postemergence herbicide test; assay type: in vivo, Amaranthus retroflexus; conditions: for Plant response rating, Pigweed: Postemergence; for Pigweed plant response rating: Preemergence
Outline: as §1

[16] = tested on: corn; test: Test B pre-/postemergence herbicide test; assay type: in vivo, Zea mays
Outline: as §3

[17] = tested on: small flower umbrella sedge; test: Test B flooded paddy test; assay type: in vivo, Cyperus difformis; conditions: 1000 g ai/ha, scale 0 to 100 (0 no effect, 100 complete control)
Outline: as §2

[18] = tested on: wheat; test: Test B postemergence herbicide test; assay type: in vivo, Triticum aestivum; parameters: key to Wheat plant response rating: 0 = no effect, 100 = complete control
Outline: (§5)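 Scale 0–100: zero equals no visible effect, 100 complete control, judged by eye relative to controls. Timing: 13 to 15 days in greenhouse post-treatment. Growth stage at spraying: two leaves (paddy) or one to four leaves, 2–18 cm (postemergence).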

[19] = tested on: wild oat; test: Test B postemergence herbicide test; assay type: in vivo, Avena fatua; conditions: scale 0 (no effect) to 100 (complete control)
Outline: as §5

[20] = tested on: giant foxtail; test: Test B pre-/postemergence herbicide test; assay type: in vivo, Setaria faberi
Outline: as §3

[21] = tested on: rice; test: Test B flooded paddy test; assay type: in vivo, Oryza sativa; conditions: 1000 g ai/ha, scale 0 to 100 (0 no effect, 100 complete control)
Outline: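 Paddy species grown to the 2-leaf stage under flooding; blackgrass sprayed postemergence at 2–18 cm (1- to 4-leaf stage). Plants kept in a greenhouse for 13 to 15 days, then visually rated against controls on 0 (no effect) to 100 (complete control).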

[22] = tested on: morningglory; test: Test B pre-/postemergence herbicide test; assay type: in vivo, Ipomoea coccinea
Outline: as §4

[23] = tested on: blackgrass; test: Test B postemergence herbicide test; assay type: in vivo, Alopecurus myosuroides
Outline: as §2

[24] = 500 g ai/ha, 0 to 100 scale, 0 no effect, 100 complete control
[25] = 2000 g ai/ha, 0 to 100 scale, 0 no effect, 100 complete control
[26] = 500 g ai/ha, visual rating, 0 to 100 scale (0 no effect, 100 complete control)
[27] = Postemergence, 500 g ai/ha, visual rating after 13 to 15 days, scale 0 (no effect) to 100 (complete control)
[28] = Preemergence, 500 g ai/ha, scale 0 to 100
[29] = preemergence, 125 g ai/ha, 0 to 100 scale, 0 is no effect, 100 is complete control
[30] = Postemergence, 125 g ai/ha, scale 0 (no effect) to 100 (complete control)
[31] = 125 g ai/ha, 0 is no effect, 100 is complete control, preemergence
[32] = 125 g ai/ha, visual rating, scale 0 (no effect) to 100 (complete control), postemergence
[33] = Postemergence, 500 g ai/ha, scale 0 (no effect) to 100 (complete control)
[34] = postemergence, 500 g ai/ha, scale 0 to 100, 0 is no effect, 100 is complete control

CCN(CC)C(=O)c1cccc(NC(=O)c2cc(C(C)(C)C)nn2CCF)c1 [Compound 36]
Plant response rating, Morningglory [1, 24]: 10 | Plant response rating, Morningglory [1, 25]: 10 | Morningglory plant response rating [1, 26]: 20 | Morningglory plant response rating [1, 25]: 70 | Ducksalad plant response rating ([2]; visual rating, 13 to 15 days): 90 | Plant response rating, Surinam Grass [3, 27]: 10 | Surinam Grass plant response rating [3, 28]: 50 | Plant response rating, Surinam Grass [3, 29]: 10 | Plant response rating, Crabgrass, Large [4, 24]: 10 | Plant response rating, Crabgrass, Large [4, 25]: 10 | Crabgrass, Large plant response rating [4, 26]: 10 | Crabgrass, Large plant response rating [4, 25]: 70 | Lambsquarters plant response rating [5, 30]: 80 | Plant response rating, Lambsquarters [5, 27]: 90 | Lambsquarters plant response rating [5, 28]: 100 | Plant response rating, Lambsquarters [5, 29]: 80 | Plant response rating, Pigweed [6, 27]: 90 | Pigweed plant response rating [6, 28]: 100 | Plant response rating, Pigweed [6, 29]: 90 | Cocklebur plant response rating [7, 30]: 30 | Plant response rating, Cocklebur [7, 27]: 50 | Cocklebur plant response rating [7, 28]: 0 | Barnyardgrass plant response rating ([8]; visual rating, 13 to 15 days): 70 | Plant response rating, Foxtail, Giant [9, 24]: 20 | Plant response rating, Foxtail, Giant [9, 25]: 35 | Foxtail, Giant plant response rating [9, 26]: 5 | Foxtail, Giant plant response rating [9, 25]: 85 | Crabgrass, Large plant response rating [10, 30]: 20 | Plant response rating, Crabgrass, Large [10, 27]: 20 | Crabgrass, Large plant response rating [10, 28]: 20 | Plant response rating, Barnyardgrass [11, 24]: 35 | Plant response rating, Barnyardgrass [11, 25]: 80 | Barnyardgrass plant response rating [11, 26]: 45 | Barnyardgrass plant response rating [11, 25]: 75 | Barnyardgrass plant response rating [12, 30]: 20 | Plant response rating, Barnyardgrass [12, 27]: 20 | Barnyardgrass plant response rating [12, 28]: 80 | Plant response rating, Velvetleaf [13, 27]: 40 | Velvetleaf plant response rating [13, 28]: 50 | Plant response rating, Velvetleaf [13, 29]: 20 | Plant response rating, Velvetleaf [14, 24]: 15 | Plant response rating, Velvetleaf [14, 25]: 20 | Velvetleaf plant response rating [14, 26]: 20 | Velvetleaf plant response rating [14, 25]: 90 | Plant response rating, Pigweed [15, 24]: 80 | Plant response rating, Pigweed [15, 25]: 85 | Pigweed plant response rating [15, 26]: 95 | Pigweed plant response rating [15, 25]: 100 | Corn plant response rating [16, 28]: 10 | Sedge, Umbrella plant response rating ([17]; visual rating, 13 to 15 days): 60 | Plant response rating, Wheat [18, 27]: 30 | Oat, Wild plant response rating ([19]; Postemergence, 125 g ai/ha): 20 | Plant response rating, Oat, Wild ([19]; Postemergence, 500 g ai/ha, visual rating after 13 to 15 days): 20 | Foxtail, Giant plant response rating [20, 30]: 20 | Plant response rating, Foxtail, Giant [20, 27]: 30 | Foxtail, Giant plant response rating [20, 28]: 30 | Plant response rating, Foxtail, Giant [20, 29]: 0 | Rice plant response rating ([21]; visual rating, 13 to 15 days): 40 | Morningglory plant response rating [22, 28]: 10 | Plant response rating, Morningglory [22, 29]: 10 | Blackgrass plant response rating [23, 30]: 10 | Plant response rating, Blackgrass [23, 27]: 20

CCc1nn(C(C)(C)CC)nc1C(=O)Nc1cc(C(=O)N2CC=CC2)ccc1F [Compound 371]
Ducksalad plant response rating [2]: 90 | Plant response rating (0 to 100 scale), Surinam Grass [3, 31]: 10 | Surinam Grass plant response rating [3, 32]: 0 | Surinam Grass plant response rating [3, 33]: 10 | Lambsquarters plant response rating [5, 32]: 40 | Lambsquarters plant response rating [5, 33]: 70 | Plant response rating (0 to 100 scale), Pigweed [6, 31]: 0 | Pigweed plant response rating [6, 32]: 10 | Pigweed plant response rating [6, 33]: 30 | Plant response rating (0 to 100 scale), Cocklebur [7, 31]: 0 | Cocklebur plant response rating [7, 32]: 20 | Cocklebur plant response rating [7, 34]: 30 | Barnyardgrass plant response rating [8]: 30 | Plant response rating (0 to 100 scale), Crabgrass, Large [10, 31]: 10 | Crabgrass, Large plant response rating [10, 32]: 0 | Crabgrass, Large plant response rating [10, 34]: 10 | Plant response rating (0 to 100 scale), Barnyardgrass [12, 31]: 0 | Barnyardgrass plant response rating [12, 32]: 0 | Barnyardgrass plant response rating [12, 34]: 0 | Plant response rating (0 to 100 scale), Velvetleaf [13, 31]: 0 | Velvetleaf plant response rating [13, 32]: 10 | Velvetleaf plant response rating [13, 33]: 20 | Plant response rating (0 to 100 scale), Corn [16, 31]: 0 | Corn plant response rating [16, 32]: 10 | Corn plant response rating [16, 34]: 10 | Sedge, Umbrella plant response rating [17]: 60 | Wheat plant response rating [18, 32]: 0 | Wheat plant response rating ([18]; 500 g ai/ha, scale 0 to 100, 0 no effect, 100 complete control, preemergence): 0 | Wheat plant response rating [18, 33]: 10 | Oat, Wild plant response rating ([19]; 125 g ai/ha, visual rating, postemergence): 0 | Oat, Wild plant response rating ([19]; Postemergence, 500 g ai/ha): 10 | Plant response rating (0 to 100 scale), Foxtail, Giant [20, 31]: 10 | Foxtail, Giant plant response rating [20, 32]: 10 | Foxtail, Giant plant response rating [20, 34]: 20 | Rice plant response rating [21]: 40 | Plant response rating (0 to 100 scale), Morningglory [22, 31]: 0 | Morningglory plant response rating [22, 32]: 40 | Morningglory plant response rating [22, 33]: 70 | Blackgrass plant response rating [23, 32]: 0 | Blackgrass plant response rating [23, 34]: 20

— US20060069132A1, “Azolecarboxamide herbicides” (priority 2004, published 2006)
